Entries after “also recorded” stand apart in the source; their conditions may differ.
How the values were obtained:
xanthine oxidase = xanthine oxidase (Homo sapiens, UniProt P47989); assay: Control reaction for direct inhibition of xanthine oxidase (urate production at 290 nm); type: biochemical; details: 6 and 11 μM C7
Experimental: Superoxide dismutase (SOD) activity was assayed by following the inhibition of the reduction of an electron acceptor molecule in the presence of the free-radical generating system xanthine/xanthine oxidase (McCord et al. (1973) Superoxide and Superoxide Dismutase in “Oxidases and Related Redox Systems, vol. I, King et al. eds., University Park press, Baltimore, pp. 51-76). The assay mixture consisted of 50 mM sodium phosphate, pH 7.8, 120 μM xanthine, 0.2 units/ml xanthine oxidase, with acceptor molecule and salen manganese compound, as indicated. Assays were conducted at 27±0.2° C. using a water-jacketed cell holder in a Beckman DU7400 spectrophotometer. In most cases, oxidized cytochrome c, at 0.13 mg/ml, was employed as acceptor and its reduction was monitored spectrophotometrically at 550 nm. In some experiments, nitroblue tetrazolium (NBT), at 80 μM, was substituted for cytochrome c as the acceptor. NBT reduction was also monitored at 550 nm. An estimated extinction coefficient for NBT reduction, 20,800 M^−1cm^−1, determined empirically by exhaustive reduction of NBT in the reaction mixture described above, was employed where indicated. This value agreed well with reported extinction coefficients for reduced tetrazolium dyes. […] Conversion of xanthine to urate was calculated using ε290's of […] for urate and 4050 M^−1cm^−1 for xanthine. […]

[1] = In vitro model for acidosis-induced mucosal injury
[2] = test system: dopaminergic neurons in mouse striatum; assay: 6-OHDA model of neuronal injury in mice (3H-mazindol binding in striatal homogenates); type: in vivo
Experimental: 6-OHDA in mice. Adult male CFW mice were anesthetized with ketamine and rumpun, and immobilized in a stereotaxic device. 6-OHDA, as the hydrobromide salt, was dissolved in normal saline with 1% ascorbate, and 50 μg was administered in lateral ventricle by means of a 10 μl Hamilton syringe. […] Animals were sacrificed 7 days later, and neuronal pathology was assessed by measuring ^3H-mazindol binding in striatal homogenates.

mice = assay: Mouse model for delayed hypersensitivity (oxazolone, ear edema); type: in vivo; details: topical, 2.5 micrograms C7 per ear
Experimental: Mice (“Presensitized” and “Presensitized+C7” groups) were presensitized with oxazolone on the abdomen. One group (“Not presensitized”) received only vehicle on the abdomen at this time. After 7 days, each mouse was challenged with the oxazolone hapten on one ear and given vehicle only on the opposite ear. […] The other two groups received an equivalent volume of 90% acetone. Twenty-four hr after challenge, mice were sacrificed and ear edema was assessed by determining the wet weight/dry weight ratio. (Wet weight was determined by weighing the freshly dissected ear and dry weight was determined after lyophilization to a constant weight.)
Mice (“Presensitized” and “Presensitized+C7” groups) were presensitized with oxazolone on the abdomen. One group (“Not presensitized”) received only vehicle on the abdomen at this time. After 7 days, each mouse were challenged with the oxazolone hapten on one ear and given vehicle only on the opposite ear. […] The other two groups received an equivalent volume of 90% acetone. Twenty-four hr after challenge, mice were sacrificed and ear edema was assessed by determining the wet weight/dry weight ratio. (Wet weight was determined by weighing the freshly dissected ear and dry weight was determined after lyophilization to a constant weight.)

[3] = test system: isolated iron-overloaded rat hearts; assay: Isolated iron-overloaded rat hearts submitted to ischemia and reperfusion (function and electron microscopy)
Experimental: Rats received an intramuscular injection of 0.25 ml of an iron-dextran solution (100 g iron hydroxide, 99 g dextran, water up to 1 l) every third day during a 5-week period to achieve a significant iron overload in cardiac tissue. At the end of this treatment, rats were anesthetized with sodium pentobarbital (40 mg/kg) and heparin (1,000 IU/kg) was administered via a femoral vein. Hearts were then removed and rapidly perfused through the aorta according to the technique described by Langendorff [Langendorff, O., Pflügers Arch. 61: 291, 1895] at a constant flow rate of 11 ml/minute. The perfusion fluid was a modified Krebs-Henseleit buffer containing (in mmol/l): NaCl 118, KCl 5.9, NaHCO3 25, MgCl2 1.2, NaH2PO4 0.6, CaCl2 2.4, Glucose […]. pH was maintained at 7.4±0.05 when the perfusion medium was saturated with O2—CO2 (95%-5%) at 37° C. The perfusion apparatus was fully thermostated such that the temperature of the perfusion medium was 37.0±0.5° C. when it reached the aorta. An ultra-thin balloon was inserted in the left ventricle immediately after the initiation of aortic perfusion and was inflated so as to obtain an end-diastolic pressure of 5 mm Hg. A 15 minute stabilization period was initiated immediately following balloon placement. At the end of this period, systolic and diastolic ventricular pressures and heart beat rate (HR) were recorded through a pressure transducer linked to the ventricular balloon. Left Ventricular Developed Pressure (LVDP) was calculated by the difference between systolic and diastolic pressure and the product HR×LVDP was taken as an index of oxygen consumption. Hearts were then subjected to a 15 minute total global normothermic ischemia, followed by 15 minutes of reperfusion with the perfusion medium used initially. During this 15 minute reperfusion, heart rate, and diastolic and systolic pressures were monitored. Early ventricular fibrillations were analyzed 1 min. after the start of the reperfusion.
Three experimental groups were studied.
After the 15 minute reperfusion, 3 hearts in each group were prepared for electron microscopy by perfusion with 2.5% glutaraldehyde. Ultra-thin slices (500-600 Å thickness) were examined.
Mitochondria were classified into Type A (normal), Type B (swollen, unbroken), and Type C (ruptured membranes). Sarcomeres were classified into Type A (normal) and Type B (contacted and/or necrosis). The results are expressed as percentages.

SJL female mice = assay: Experimental autoimmune encephalomyelitis (EAE); type: in vivo, mouse
From the text: EAE is an animal model of multiple sclerosis.
Mice in both groups were immunized with an encephalitogenic PLP peptide in complete Freund's adjuvant subcutaneously, followed by Petrussis Toxin (IV). Petrussis toxin was repeated on day 3 post immunization.

[4] = C7 4×66 mg/kg i.p., 6-OHDA 50 μg i.c.v.
[5] = 1 minute after reperfusion, DMTU 10 mM, C7 50 μM
[6] = 15 minutes after reperfusion, DMTU 10 mM, C7 50 μM
[7] = Before ischemia, DMTU 10 mM, C7 50 μM
[8] = electron microscopy after 15 minute reperfusion

Chain of xanthine oxidase (P47989 whole entry, species assumed): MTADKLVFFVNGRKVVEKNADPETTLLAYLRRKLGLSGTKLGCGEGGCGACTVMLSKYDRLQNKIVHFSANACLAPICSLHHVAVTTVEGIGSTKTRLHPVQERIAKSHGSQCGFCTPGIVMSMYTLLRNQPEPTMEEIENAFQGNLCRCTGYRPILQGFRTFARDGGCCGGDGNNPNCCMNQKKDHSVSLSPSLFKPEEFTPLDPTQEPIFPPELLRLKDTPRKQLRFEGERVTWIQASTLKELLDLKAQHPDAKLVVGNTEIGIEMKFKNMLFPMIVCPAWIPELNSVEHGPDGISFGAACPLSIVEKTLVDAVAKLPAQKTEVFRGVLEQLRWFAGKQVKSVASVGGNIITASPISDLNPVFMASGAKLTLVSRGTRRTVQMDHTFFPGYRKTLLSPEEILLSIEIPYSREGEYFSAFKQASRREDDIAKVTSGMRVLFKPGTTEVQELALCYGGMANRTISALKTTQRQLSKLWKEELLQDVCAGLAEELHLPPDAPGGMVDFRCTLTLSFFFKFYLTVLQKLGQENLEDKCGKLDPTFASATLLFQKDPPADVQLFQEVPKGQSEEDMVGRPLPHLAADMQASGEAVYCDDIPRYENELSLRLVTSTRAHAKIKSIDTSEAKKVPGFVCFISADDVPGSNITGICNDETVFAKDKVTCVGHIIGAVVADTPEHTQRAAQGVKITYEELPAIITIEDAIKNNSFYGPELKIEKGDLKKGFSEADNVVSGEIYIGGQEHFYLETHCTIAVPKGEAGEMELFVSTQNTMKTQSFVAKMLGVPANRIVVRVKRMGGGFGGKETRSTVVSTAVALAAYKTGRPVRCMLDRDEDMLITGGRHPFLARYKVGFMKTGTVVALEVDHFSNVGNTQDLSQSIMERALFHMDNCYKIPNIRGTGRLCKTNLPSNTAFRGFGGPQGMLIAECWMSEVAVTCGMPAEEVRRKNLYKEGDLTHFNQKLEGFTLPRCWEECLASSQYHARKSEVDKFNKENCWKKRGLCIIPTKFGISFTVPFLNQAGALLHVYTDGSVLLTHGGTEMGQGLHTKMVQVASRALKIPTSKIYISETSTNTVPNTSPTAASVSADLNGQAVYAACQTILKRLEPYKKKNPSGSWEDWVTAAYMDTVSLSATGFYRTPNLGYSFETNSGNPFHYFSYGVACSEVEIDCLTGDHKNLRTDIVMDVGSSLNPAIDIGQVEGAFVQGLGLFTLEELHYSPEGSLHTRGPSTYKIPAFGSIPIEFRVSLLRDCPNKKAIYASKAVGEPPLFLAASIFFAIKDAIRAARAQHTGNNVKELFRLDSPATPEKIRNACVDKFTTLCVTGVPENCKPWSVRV

[Cl][Mn]1[O]c2ccccc2C=NCCN=Cc2ccccc2[O]1 [Compound C7]
effect on xanthine oxidase activity (xanthine oxidase): no effect; also recorded: without affecting
protection against acidosis-induced mucosal injury [1]: protective
mazindol binding, contralateral striatum [2, 4]: complete protection
mazindol binding, ipsilateral striatum [2, 4]: significant reduction
crossing of the blood brain barrier ([2]; concluded from effects of peripheral injections in in vivo models): crosses the blood brain barrier
protection from 6-OHDA-induced degeneration ([2]; mouse, in vivo): protects dopaminergic neurons
protection, ear edema (mice): protective
DP [3, 5]: 5.8 ± 0.5#± mm Hg
HR [3, 5]: 130 ± 13 beats/min
HR × LVDP [3, 5]: 9.9 ± 0.8#± ×10.3
SP [3, 5]: 72 ± 8 mm Hg
VF, number of hearts exhibiting episodes of ventricular fibrillation [3, 5]: 2/8
DP [3, 6]: 8.3 ± 0.6 mm Hg
HR [3, 6]: 241 ± 15 beats/min
SP [3, 6]: 92 ± 15 mm Hg
DP [3, 7]: 5.4 ± 0.3 mm Hg
HR [3, 7]: 278 ± 7 beats/min
HR × LVDP [3, 7]: 23.5 ± 0.9 ×10.3
SP [3, 7]: 90 ± 2 mm Hg
protection of hearts from ischemia/reoxygenation damage ([3]; C7 50 μM): effectively protected hearts
Mitochondria Type A (normal) [3, 8]: 31.0#± %
Mitochondria Type C (ruptured membranes) [3, 8]: 53.8#± %
Sarcomeres Type A (normal) [3, 8]: 60.6#± %
Sarcomeres Type B (contacted and/or necrosis) [3, 8]: 39.4#± %
mice developing symptomatic EAE (SJL female mice; fifth week, three weeks after treatment with C7 was stopped): six
mice developing symptomatic EAE (SJL female mice; third week following immunization, C7 1 mg/mouse IP daily, day -2 to 14): one of 10

From patent US7582786B2, “Synthetic catalytic free radical scavengers useful as antioxidants for prevention and therapy of disease” (Eukarion Inc., priority 1996, dated 2009)
